Where a name gives a salt, the structure may show the parent alone.
Legend:
Type in all cases: biochemical
[1] = target: T1, Human recombinant LSD1 protein (Homo sapiens, UniProt O60341); experiment: Inhibition of LSD1 (Amplex Red peroxide/peroxidase-coupled demethylase assay, di-methylated H3-K4 peptide substrate); conditions: Ki (IC50) estimated at half of the maximum activity; range class
T1 construct: purchased BPS Bioscience Inc
Excerpt: The compounds of the invention can be tested for their ability to inhibit LSD1. The ability of the compounds of the invention to inhibit LSD1 can be tested as follows. Human recombinant LSD1 protein was purchased from BPS Bioscience Inc. In order to monitor LSD1 enzymatic activity and/or its inhibition rate by our inhibitor(s) of interest, di-methylated H3-K4 peptide (Millipore) was chosen as a substrate. The demethylase activity was estimated, under aerobic conditions, by measuring the release of H2O2 produced during the catalytic process, using the Amplex® Red peroxide/peroxidase-coupled assay kit (Invitrogen).
Briefly, a fixed amount of LSD1 was incubated on ice for 15 minutes, in the absence and/or in the presence of various concentrations of inhibitor (e.g., from 0 to 75 μM, depending on the inhibitor strength). Tranylcypromine (Biomol International) was used as a control for inhibition. Within the experiment, each concentration of inhibitor was tested in triplicate. After leaving the enzyme interacting with the inhibitor, 12.5 μM of di-methylated H3-K4 peptide was added to each reaction and the experiment was left for 1 hour at 37° C. in the dark. The enzymatic reactions were set up in a 50 mM sodium phosphate, pH 7.4 buffer. At the end of the incubation, Amplex® Red reagent and horseradish peroxidase (HPR) solution were added to the reaction according to the recommendations provided by the supplier (Invitrogen), and left to incubate for 30 extra minutes at room temperature in the dark. A 1 μM H2O2 solution was used as a control of the kit efficiency. The conversion of the Amplex® Red reagent to resorufin due to the presence of H2O2 in the assay, was monitored by fluorescence (excitation at 540 nm, emission at 590 nm) using a microplate reader (Infinite 200, Tecan). Arbitrary units were used to measure level of H2O2 produced in the absence and/or in the presence of inhibitor.
The maximum demethylase activity of LSD1 was obtained in the absence of inhibitor and corrected for background fluorescence in the absence of LSD1. The Ki (IC50) of each inhibitor was estimated at half of the maximum activity.

[2] = target: T2, Human recombinant monoamine oxidase MAO-A (Homo sapiens, UniProt P21397); experiment: Monoamine oxidase assay, kynuramine fluorescence, MAO-A; conditions: Ki (IC50) determined at Vmax/2; range class
T2 construct: purchased Sigma Aldrich
T2 sequence (P21397 1-527): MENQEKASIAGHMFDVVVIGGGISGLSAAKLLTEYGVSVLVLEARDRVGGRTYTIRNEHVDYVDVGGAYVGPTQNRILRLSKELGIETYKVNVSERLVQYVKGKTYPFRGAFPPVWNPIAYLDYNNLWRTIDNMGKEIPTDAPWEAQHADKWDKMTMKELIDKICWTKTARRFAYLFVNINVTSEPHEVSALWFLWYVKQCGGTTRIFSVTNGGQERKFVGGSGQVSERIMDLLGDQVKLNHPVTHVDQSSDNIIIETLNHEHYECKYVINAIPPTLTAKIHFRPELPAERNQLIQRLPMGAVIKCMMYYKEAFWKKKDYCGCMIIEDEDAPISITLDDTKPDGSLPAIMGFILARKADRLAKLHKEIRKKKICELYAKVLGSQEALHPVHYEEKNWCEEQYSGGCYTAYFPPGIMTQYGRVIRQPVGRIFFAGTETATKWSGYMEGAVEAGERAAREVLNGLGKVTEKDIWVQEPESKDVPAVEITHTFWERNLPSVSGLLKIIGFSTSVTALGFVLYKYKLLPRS
Excerpt: (§1) Human recombinant monoamine oxidase proteins MAO-A and MAO-B were purchased from Sigma Aldrich. MAOs catalyze the oxidative deamination of primary, secondary and tertiary amines. In order to monitor MAO enzymatic activities and/or their inhibition rate by inhibitor(s) of interest, a fluorescence-based (inhibitor)-screening assay was set up. 3-(2-Aminophenyl)-3-oxopropanamine (kynuramine dihydrobromide, Sigma Aldrich), a non fluorescent compound was chosen as a substrate. Kynuramine is a non-specific substrate for both MAO-A and MAO-B activities. While undergoing oxidative deamination by MAO activities, kynuramine is converted into 4-hydroxyquinoline (4-HQ), a resulting fluorescent product.
(§2) The monoamine oxidase activity was estimated by measuring the conversion of kynuramine into 4-hydroxyquinoline. Assays were conducted in 96-well black plates with clear bottom (Corning) in a final volume of 100 μL. The assay buffer was 100 mM HEPES, pH 7.5. Each experiment was performed in triplicate within the same experiment.
(§3) Briefly, a fixed amount of MAO (0.25 μg for MAO-A and 0.5 μg for MAO-B) was incubated on ice for 15 minutes in the reaction buffer, in the absence and/or in the presence of various concentrations of inhibitor (e.g., from 0 to 50 μM, depending on the inhibitor strength). Tranylcypromine (Biomol International) was used as a control for inhibition.
(§4) After leaving the enzyme(s) interacting with the inhibitor, 60 to 90 μM of kynuramine was added to each reaction for MAO-B and MAO-A assay respectively, and the reaction was left for 1 hour at 37° C. in the dark. The oxidative deamination of the substrate was stopped by adding 50 μL (v/v) of NaOH 2N. The conversion of kynuramine to 4-hydroxyquinoline, was monitored by fluorescence (excitation at 320 nm, emission at 360 nm) using a microplate reader (Infinite 200, Tecan). Arbitrary units were used to measure levels of fluorescence produced in the absence and/or in the presence of inhibitor.
(§5) The maximum of oxidative deamination activity was obtained by measuring the amount of 4-hydroxyquinoline formed from kynuramine deamination in the absence of inhibitor and corrected for background fluorescence in the absence of MAO enzymes. The Ki (IC50) of each inhibitor was determined at Vmax/2.

[3] = target: T3, Human recombinant monoamine oxidase MAO-B (Homo sapiens, UniProt P27338); experiment: Monoamine oxidase assay, kynuramine fluorescence, MAO-B; conditions: Ki (IC50) determined at Vmax/2; range class
T3 construct: purchased Sigma Aldrich
T3 sequence (P27338 1-520): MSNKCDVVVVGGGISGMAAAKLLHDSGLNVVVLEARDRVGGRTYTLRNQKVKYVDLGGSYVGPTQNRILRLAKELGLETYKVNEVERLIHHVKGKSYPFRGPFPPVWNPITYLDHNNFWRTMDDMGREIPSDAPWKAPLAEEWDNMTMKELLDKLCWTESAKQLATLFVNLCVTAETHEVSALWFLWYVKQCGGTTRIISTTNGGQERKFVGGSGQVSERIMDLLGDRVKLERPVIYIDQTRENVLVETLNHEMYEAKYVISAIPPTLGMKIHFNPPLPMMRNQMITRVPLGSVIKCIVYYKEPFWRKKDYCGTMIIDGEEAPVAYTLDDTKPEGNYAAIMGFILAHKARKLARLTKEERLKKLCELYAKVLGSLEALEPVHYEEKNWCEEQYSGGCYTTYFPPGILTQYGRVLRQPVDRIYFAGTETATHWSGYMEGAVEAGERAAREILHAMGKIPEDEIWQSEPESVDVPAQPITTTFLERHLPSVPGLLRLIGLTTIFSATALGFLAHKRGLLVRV
Excerpt: as §1, §2, §3, §4, §5

| Ki [1] [nM] | Ki [2] [µM] | Ki [3] [nM] | Structure (SMILES) |
| --- | --- | --- | --- |
| 100 to 1000 | 1 to 40 | 100 to 1000 | N#Cc1cccc(Nc2ccc([C@H]3C[C@@H]3N)cn2)c1 (racemic) [Example 9, 3-(5-((trans)-2-aminocyclopropyl)pyridin-2-ylamino)benzonitrile hydrochloride] |
| 100 to 1000 | 1 to 40 | 1000 to 40000 | N[C@H]1C[C@@H]1c1ccc(NCc2ccc(C(F)(F)F)cc2)nc1 (racemic) [Example 15, 5-((trans)-2-aminocyclopropyl)-N-(4-(trifluoromethyl)benzyl)pyridin-2-amine hydrochloride] |
| 100 to 1000 | 1 to 40 | 100 to 1000 | N[C@H]1C[C@@H]1c1ccc(Nc2ccc(C(F)(F)F)cc2)nc1 (racemic) [Example 3, 5-((trans)-2-aminocyclopropyl)-N-(4-(trifluoromethyl)phenyl)pyridin-2-amine hydrochloride] |
| 100 to 1000 | 1 to 40 | 1000 to 40000 | Cc1ccc(CNc2ccc([C@H]3C[C@@H]3N)cn2)cc1 (racemic) [Example 17, 5-((trans)-2-aminocyclopropyl)-N-(4-methylbenzyl)pyridin-2-amine hydrochloride] |
| 100 to 1000 | 1 to 40 | 1 to 100 | N[C@H]1C[C@@H]1c1ccc(Nc2ccc(Cl)cc2)nc1 (racemic) [Example 2, 5-((trans)-2-aminocyclopropyl)-N-(4-chlorophenyl)pyridin-2-amine hydrochloride] |
| 100 to 1000 | 1 to 40 | 1000 to 40000 | NC(=O)c1cccc(Nc2ccc([C@H]3C[C@@H]3N)cn2)c1 (racemic) [Example 10, 3-(5-((trans)-2-aminocyclopropyl)pyridin-2-ylamino)benzamide hydrochloride] |
| 100 to 1000 | 1 to 40 | 100 to 1000 | COc1ccc(Nc2ccc([C@H]3C[C@@H]3N)cn2)cc1 (racemic) [Example 5, 5-((trans)-2-aminocyclopropyl)-N-(4-methoxyphenyl)pyridin-2-amine hydrochloride] |
| 100 to 1000 | 1 to 40 | 1000 to 40000 | N[C@H]1C[C@@H]1c1ccc(NCc2cccc(Cl)c2)nc1 (racemic) [Example 12, 5-((trans)-2-aminocyclopropyl)-N-(3-chlorobenzyl)pyridin-2-amine hydrochloride] |
| 100 to 1000 | 1 to 40 | 100 to 1000 | Cc1cccc(Nc2ccc([C@H]3C[C@@H]3N)cn2)c1 (racemic) [Example 7, 5-((trans)-2-aminocyclopropyl)-N-m-tolylpyridin-2-amine hydrochloride] |
| 100 to 1000 | 1 to 40 | 1000 to 40000 | Cc1cccc(CNc2ccc([C@H]3C[C@@H]3N)cn2)c1 (racemic) [Example 16, 5-((trans)-2-aminocyclopropyl)-N-(3-methylbenzyl)pyridin-2-amine hydrochloride] |
| 100 to 1000 | 1 to 40 | 1000 to 40000 | Cc1ccc(Nc2ccc([C@H]3C[C@@H]3N)cn2)cc1 (racemic) [Example 6, 5-((trans)-2-aminocyclopropyl)-N-p-tolylpyridin-2-amine hydrochloride] |
| 100 to 1000 | 1 to 40 | 1000 to 40000 | N#Cc1cccc(CNc2ccc([C@H]3C[C@@H]3N)cn2)c1 (racemic) [Example 18, 3-((5-((trans)-2-aminocyclopropyl)pyridin-2-ylamino)methyl)benzonitrile hydrochloride] |
| 100 to 1000 | 1 to 40 | 1 to 100 | N[C@H]1C[C@@H]1c1ccc(Nc2cccc(Cl)c2)nc1 (racemic) [Example 1, 5-((trans)-2-aminocyclopropyl)-N-(3-chlorophenyl)pyridin-2-amine hydrochloride] |
| 100 to 1000 | 1 to 40 | 1000 to 40000 | COc1cccc(Nc2ccc([C@H]3C[C@@H]3N)cn2)c1 (racemic) [Example 4, 5-((trans)-2-aminocyclopropyl)-N-(3-methoxyphenyl)pyridin-2-amine hydrochloride] |

Reference: US9061966B2, “Cyclopropylamine inhibitors of oxidases” (ORYZON GENOMICS S.A., priority 2010, dated 2015)
